Assays:
human PASK [1] = molecular target: T1, human PASK (Homo sapiens, UniProt Q96RG2); assay: 33P radioactive kinase assay; format: biochemical; conditions: 33P radioactive PASK kinase assay, 10 μM ATP, ZIPtide 1 μM
T1 construct: purchased ThermoFisher Scientific PR7013A
Description: The principle of the ^33P radioactive kinase assay consists in measuring the incorporated ^33P into the ZIPtide peptide substrate when phosphorylated by human PASK using [^33P]-[…]-ATP and ATP, which correlates with kinase activity.
The test compounds are prepared as a serial dilution of 10 point dose responses with 1/5 dilution steps in 100% DMSO starting from 0.2 or 2 mM highest concentration, diluted 1/20 in water and 5 μL is transferred to the assay plates (Greiner, Cat #651201).
(§1) 1% DMSO and 10 μM staurosporine final concentrations are used respectively as negative and positive controls.
11 μL of enzyme-substrate mixture is added on the assay plates. The reactions are started by adding 9 μL ATP mixture, consisting of non-labeled and ^33P-labeled ATP, on the assay plates.
The reactions are stopped by adding 25 μL phosphoric acid (150 mM) to the reactions.
The completely terminated kinase reactions are transferred using a harvester on pre-wetted UniFilter-96 plates (UniFilter-96 GF/B, PerkinElmer Inc., Cat #6005177).
After harvesting the kinase reactions, the filter plates are washed 6 times with phosphoric acid (75 mM). The back of the UniFilter-96 plates are sealed and 40 μL MicroScint-20 (PerkinElmer Inc., Cat #6013621) is added to each well. The top of each plate is sealed with TopSeal-A (PerkinElmer Inc., Cat #6050185). Read-out is performed with a TopCount instrument (PerkinElmer Inc.).
Raw data are generated following the read-out performed on the TopCount, used to calculate percentage inhibition (PIN) values and plotted to generate dose response curves and derive the average half maximal inhibitory concentrations (IC50) reported in Table VI.

human PASK [2] = molecular target: T1, human PASK; assay: ADP-Glo kinase assay; format: biochemical; conditions: ADPGlo PASK kinase assay, 25 μM ATP, ZIPtide 25 μM
Description: The ADP-Glo™ kinase assay is a luminescent technology assay which measures the ADP formed from a kinase reaction. In this specific study, the kinase reactions consisted of the phosphorylation of the ZIPtide peptide substrate by human recombinant PASK. In a second step the kinase reaction is terminated and all the remaining ATP is depleted. In a final step the ADP is converted into ATP and this newly synthesized ATP is measured by using a luciferase/luciferin reaction. The generated light is measured using an Envision plate reader, wherein the luminescent signal obtained positively correlates with the kinase activity.
The test compounds are prepared as a serial dilution of 10 point dose responses with 1/5 dilution steps in 100% DMSO starting from 2 mM highest concentration, diluted 1/20 in water and 1 μL is transferred to the assay plates (PerkinElmer Inc., Cat #6007290).
as §1
2 μL enzyme-substrate mixture is added to the assay plates.
The reaction is started by adding 2 μL diluted ATP on the assay plates immediately after addition of the enzyme-substrate mixture to the compound. Plates are centrifuged for a few seconds at 1000 rpm and gently shaken for 2 min followed by an incubation at RT for 120 min.
The reactions are stopped and the unconsumed ATP is depleted by adding 5 μL ADP-Glo Reagent (Promega, Cat #V912B) to the reaction. The plates are centrifuged for a few seconds at 1000 rpm and incubated at RT for 40 min (ATP depletion).
The ADP is converted to ATP and luciferase and luciferin is introduced to detect ATP by adding 10 μL Kinase Detection Reagent (Promega, Cat #V913B+V914B) to the reaction. The plates are centrifuged for a few seconds at 1000 rpm and incubated at RT for 30 min (ADP detection).
Luminescence is measured on an Envision plate reader (PerkinElmer Inc.).
Raw data are generated following the read-out performed on the Envision plate reader, used to calculate percentage inhibition (PIN) values and plotted to generate dose response curves and derive the average half maximal inhibitory concentrations (IC50) reported in Table VIII.

T1 sequence (Q96RG2 whole entry): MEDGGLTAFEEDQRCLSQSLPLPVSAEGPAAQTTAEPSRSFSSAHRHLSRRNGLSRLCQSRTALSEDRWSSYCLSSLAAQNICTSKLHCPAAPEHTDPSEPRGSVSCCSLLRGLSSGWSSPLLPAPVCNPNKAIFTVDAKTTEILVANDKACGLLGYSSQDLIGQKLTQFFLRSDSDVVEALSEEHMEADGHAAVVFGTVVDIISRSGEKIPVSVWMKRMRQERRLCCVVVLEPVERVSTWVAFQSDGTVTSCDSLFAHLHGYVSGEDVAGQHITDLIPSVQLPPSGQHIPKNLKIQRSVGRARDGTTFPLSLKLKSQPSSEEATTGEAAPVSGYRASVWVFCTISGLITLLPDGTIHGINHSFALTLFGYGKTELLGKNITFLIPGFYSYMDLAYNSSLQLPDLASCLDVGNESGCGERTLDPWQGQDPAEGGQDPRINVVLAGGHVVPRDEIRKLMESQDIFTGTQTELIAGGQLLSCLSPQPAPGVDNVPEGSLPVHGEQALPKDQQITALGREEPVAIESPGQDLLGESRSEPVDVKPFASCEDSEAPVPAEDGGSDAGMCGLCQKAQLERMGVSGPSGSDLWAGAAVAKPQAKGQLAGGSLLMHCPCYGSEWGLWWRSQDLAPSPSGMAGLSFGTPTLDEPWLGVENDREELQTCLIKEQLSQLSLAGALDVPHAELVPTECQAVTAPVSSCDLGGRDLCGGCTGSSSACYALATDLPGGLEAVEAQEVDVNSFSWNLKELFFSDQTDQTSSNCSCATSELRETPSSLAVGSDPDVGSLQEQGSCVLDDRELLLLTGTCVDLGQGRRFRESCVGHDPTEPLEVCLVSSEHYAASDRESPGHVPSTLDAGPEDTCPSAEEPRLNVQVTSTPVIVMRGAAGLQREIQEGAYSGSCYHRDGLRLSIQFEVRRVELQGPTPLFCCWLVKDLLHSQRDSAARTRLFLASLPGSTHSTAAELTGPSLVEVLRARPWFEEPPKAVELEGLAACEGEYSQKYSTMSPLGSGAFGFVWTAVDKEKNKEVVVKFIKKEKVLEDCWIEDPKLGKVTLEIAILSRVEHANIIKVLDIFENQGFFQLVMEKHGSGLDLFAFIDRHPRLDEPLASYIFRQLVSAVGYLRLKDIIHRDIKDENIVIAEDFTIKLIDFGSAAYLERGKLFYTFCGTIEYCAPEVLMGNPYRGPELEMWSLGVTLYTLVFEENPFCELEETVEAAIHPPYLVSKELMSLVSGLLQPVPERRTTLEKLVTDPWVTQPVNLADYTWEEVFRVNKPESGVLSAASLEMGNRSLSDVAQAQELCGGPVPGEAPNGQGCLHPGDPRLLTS

IC50 (human PASK [1])	IC50 (human PASK [2])	Compound
0.01 to 10 nM	0.01 to 10 nM	Cc1nn(C(C)C)c(C)c1-c1cnn2ccc(-c3ncc(C(=O)O)s3)cc12 [Cpd 30, 2-[3-(1-isopropyl-3,5-dimethyl-pyrazol-4-yl)pyrazolo[1,5-a]pyridin-5-yl]thiazole-5-carboxylic acid]
0.01 to 10 nM	–	Cc1nn(C(C)C)c(C)c1-c1cnn2ccc(-c3nc(C(F)F)c(C(=O)O)s3)cc12 [Cpd 46, 4-(difluoromethyl)-2-[3-(1-isopropyl-3,5-dimethyl-pyrazol-4-yl)pyrazolo[1,5-a]pyridin-5-yl]thiazole-5-carboxylic acid]
10 to 100 nM	–	Cc1noc(C)c1-c1cnn2ccc(-c3nc(C(F)F)c(C(=O)O)s3)cc12 [Cpd 45, 4-(difluoromethyl)-2-[3-(3,5-dimethylisoxazol-4-yl)pyrazolo[1,5-a]pyridin-5-yl]thiazole-5-carboxylic acid]
0.01 to 10 nM	–	Cc1noc(C)c1-c1cnn2ccc(-c3cc(C(=O)O)c(C)o3)cc12 [Cpd 19, 5-[3-(3,5-dimethylisoxazol-4-yl)pyrazolo[1,5-a]pyridin-5-yl]-2-methyl-furan-3-carboxylic acid]
0.01 to 10 nM	0.01 to 10 nM	Cc1noc(C)c1-c1cnn2ccc(-c3cc(C(=O)O)co3)cc12 [Cpd 4, 5-[3-(3,5-dimethylisoxazol-4-yl)pyrazolo[1,5-a]pyridin-5-yl]furan-3-carboxylic acid]
10 to 100 nM	–	Cc1nn(C)c(C)c1-c1cnn2ccc(-c3cc(C(=O)NS(C)(=O)=O)co3)cc12 [Cpd 21, N-methylsulfonyl-5-[3-(1,3,5-trimethylpyrazol-4-yl)pyrazolo[1,5-a]pyridin-5-yl]furan-3-carboxamide]
10 to 100 nM	10 to 100 nM	Cc1noc(C)c1-c1cnn2ccc(-c3nc(C(=O)O)c(C)o3)cc12 [Cpd 34, 2-[3-(3,5-dimethylisoxazol-4-yl)pyrazolo[1,5-a]pyridin-5-yl]-5-methyl-oxazole-4-carboxylic acid]
10 to 100 nM	–	Cc1noc(C)c1-c1cnn2ccc(-c3ccc(C(=O)O)o3)cc12 [Cpd 31, 5-[3-(3,5-dimethylisoxazol-4-yl)pyrazolo[1,5-a]pyridin-5-yl]furan-2-carboxylic acid]
0.01 to 10 nM	–	Cc1noc(C)c1-c1cnn2ccc(-c3ncc(C(=O)O)o3)cc12 [Cpd 24, 2-[3-(3,5-dimethylisoxazol-4-yl)pyrazolo[1,5-a]pyridin-5-yl]oxazole-5-carboxylic acid]
0.01 to 10 nM	0.01 to 10 nM	Cc1nn(C)cc1-c1cnn2ccc(-c3cc(C(=O)O)co3)cc12 [Cpd 14, 5-[3-(1,3-dimethylpyrazol-4-yl)pyrazolo[1,5-a]pyridin-5-yl]furan-3-carboxylic acid]
0.01 to 10 nM	–	Cc1nn(C)c(C)c1-c1cnn2ccc(-c3cc(C(=O)O)c(C)o3)cc12 [Cpd 16, 2-methyl-5-[3-(1,3,5-trimethylpyrazol-4-yl)pyrazolo[1,5-a]pyridin-5-yl]furan-3-carboxylic acid]
10 to 100 nM	–	Cc1nn(C)c(C)c1-c1cnn2ccc(-c3cc(C(=O)NS(=O)(=O)C4CC4)co3)cc12 [Cpd 22, N-cyclopropylsulfonyl-5-[3-(1,3,5-trimethylpyrazol-4-yl)pyrazolo[1,5-a]pyridin-5-yl]furan-3-carboxamide]
0.01 to 10 nM	0.01 to 10 nM	CCOc1nc(-c2ccn3ncc(-c4c(C)noc4C)c3c2)sc1C(=O)O [Cpd 17, 2-[3-(3,5-dimethylisoxazol-4-yl)pyrazolo[1,5-a]pyridin-5-yl]-4-ethoxy-thiazole-5-carboxylic acid]
10 to 100 nM	100 to 500 nM	Cc1noc(C)c1-c1cnn2ccc(-c3nc(C(=O)O)co3)cc12 [Cpd 20, 2-[3-(3,5-dimethylisoxazol-4-yl)pyrazolo[1,5-a]pyridin-5-yl]oxazole-4-carboxylic acid]
0.01 to 10 nM	0.01 to 10 nM	CCn1nc(C)c(-c2cnn3ccc(-c4ncc(C(=O)O)s4)cc23)c1C [Cpd 29, 2-[3-(1-ethyl-3,5-dimethyl-pyrazol-4-yl)pyrazolo[1,5-a]pyridin-5-yl]thiazole-5-carboxylic acid]
10 to 100 nM	–	Cc1c(-c2cnn3ccc(-c4nc(C(=O)O)co4)cc23)cnn1C [Cpd 33, 2-[3-(1,5-dimethylpyrazol-4-yl)pyrazolo[1,5-a]pyridin-5-yl]oxazole-4-carboxylic acid]
10 to 100 nM	–	COC(=O)c1coc(-c2ccn3ncc(-c4c(C)nn(C)c4C)c3c2)c1 [Cpd 5, methyl 5-[3-(1,3,5-trimethylpyrazol-4-yl)pyrazolo[1,5-a]pyridin-5-yl]furan-3-carboxylate]
100 to 500 nM	100 to 500 nM	Cc1noc(C)c1-c1cnn2ccc(-c3nc(C(F)(F)F)c(C(=O)O)o3)cc12 [Cpd 36, 2-[3-(3,5-dimethylisoxazol-4-yl)pyrazolo[1,5-a]pyridin-5-yl]-4-(trifluoromethyl) oxazole-5-carboxylic acid]
0.01 to 10 nM	0.01 to 10 nM	Cc1noc(C)c1-c1cnn2ccc(-c3nc(C4CC4)c(C(=O)O)s3)cc12 [Cpd 37, 4-cyclopropyl-2-[3-(3,5-dimethylisoxazol-4-yl)pyrazolo[1,5-a]pyridin-5-yl]thiazole-5-carboxylic acid]
0.01 to 10 nM	–	CCc1oc(-c2ccn3ncc(-c4c(C)nn(C)c4C)c3c2)cc1C(=O)O [Cpd 26, 2-ethyl-5-[3-(1,3,5-trimethylpyrazol-4-yl)pyrazolo[1,5-a]pyridin-5-yl]furan-3-carboxylic acid]
0.01 to 10 nM	–	Cc1noc(C)c1-c1cnn2ccc(-c3ncc(C(=O)O)s3)cc12 [Cpd 25, 2-[3-(3,5-dimethylisoxazol-4-yl)pyrazolo[1,5-a]pyridin-5-yl]thiazole-5-carboxylic acid]
10 to 100 nM	–	Cn1cc(-c2cnn3ccc(-c4cc(C(=O)O)co4)cc23)cn1 [Cpd 3, 5-[3-(1-methylpyrazol-4-yl)pyrazolo[1,5-a]pyridin-5-yl]furan-3-carboxylic acid]
0.01 to 10 nM	–	Cc1nn(C)c(C)c1-c1cnn2ccc(-c3cc(C(=O)O)c(CC(C)C)o3)cc12 [Cpd 27, 2-isobutyl-5-[3-(1,3,5-trimethylpyrazol-4-yl)pyrazolo[1,5-a]pyridin-5-yl]furan-3-carboxylic acid]
10 to 100 nM	–	CCOC(=O)c1coc(-c2ccn3ncc(-c4c(C)nn(C)c4C)c3c2)c1 [Cpd 6, ethyl 5-[3-(1,3,5-trimethylpyrazol-4-yl)pyrazolo[1,5-a]pyridin-5-yl]furan-3-carboxylate]
0.01 to 10 nM	–	COc1nc(-c2ccn3ncc(-c4c(C)nn(C)c4C)c3c2)sc1C(N)=O [Cpd 11, 4-methoxy-2-[3-(1,3,5-trimethylpyrazol-4-yl)pyrazolo[1,5-a]pyridin-5-yl]thiazole-5-carboxamide]
10 to 100 nM	–	Cc1nn(C)c(C)c1-c1cnn2ccc(-c3cc(C(=O)OCC(=O)N(C)C)co3)cc12 [Cpd 7, [2-(dimethylamino)-2-oxo-ethyl] 5-[3-(1,3,5-trimethylpyrazol-4-yl)pyrazolo[1,5-a]pyridin-5-yl]furan-3-carboxylate]
0.01 to 10 nM	–	Cc1noc(C)c1-c1cnn2ccc(-c3cc(C(=O)O)c(C4=CCOCC4)o3)cc12 [Cpd 41, 2-(3,6-dihydro-2H-pyran-4-yl)-5-[3-(3,5-dimethyl-isoxazol-4-yl)pyrazolo[1,5-a]pyridin-5-yl]furan-3-carboxylic acid]
0.01 to 10 nM	–	Cn1cc(-c2cnn3ccc(-c4cc(C(=O)O)c(C(=O)Nc5ccccc5)o4)cc23)cn1 [Cpd 1, 5-[3-(1-methylpyrazol-4-yl)pyrazolo[1,5-a]pyridin-5-yl]-2-(phenylcarbamoyl) furan-3-carboxylic acid]

From patent US20220144823A1, “PYRAZOLOPYRIDINE DERIVATIVES AS INHIBITORS OF PASK” (Galapagos NV, priority 2019, published 2022)
